Like-named read-outs stand apart in the source and are kept apart here.
Key:
[1] = tested on: human cervical cancer cell line Hela; test: WST-8 antiproliferative assay, Hela; assay type: cell-based; conditions: for inhibition at 100 µM: read-out: Growth Inhibition (GI%) Hela; for IC50: read-out: IC50 Hela
Protocol: (§1) Compounds 7a–j, 8a–j, 9a–c, and 10a–c were evaluated for in vitro anticancer activities against five different cancer cell lines, namely, human colorectal adenocarcinoma cell lines DLD-1, human cervical cancer cell line Hela, human pancreatic cancer cell line SUIT-2, human myelogenous leukemia cell line K562, and human hepatocellular carcinoma cell line HepG2 using WST-8 assay at concentrations of 100 µM to investigate the growth inhibition percent (GI%) of each compound using daunorubicin as a reference drug. […]. […] So, as a conclusion on the SAR study of those compounds as antiproliferative agents, the oxime moiety potentiated the anticancer activity and electron donating groups on R1 and R2 played an important role on this activity. Moreover, the sulfamoyl moiety on R3 seems to play a potential role in the activity of the prepared compounds (Table 1).
(§2) All selected compounds and daunorubicin were recorded as the minimum concentration required to inhibit half cell growth (IC50) and the results are listed in Table 2.
(§3) Evaluation of anticancer activity was performed according to the standard water-soluble tetrazolium-8 (WST-8) assay at the Faculty of Engineering, Yamagata University, Yonezawa, Japan, using an MTP-310 absorbance microplate reader. The EGFR inhibitory assay was carried out at the Faculty of Engineering, Yamagata University, Yonezawa, Japan, according to the protocol enzyme linked immunosorbent assay (ELISA) kits (Douset sandwich ELISA test, recombinant mouse EGFR). The JNK-2 inhibitory assay was performed at the Faculty of Engineering, Yamagata University, Yonezawa, Japan, according to the protocol of enzyme-linked immunosorbent assay (ELISA), the assay was carried out using the JNK-2 kit (Simple Step ELISA, pT183/Y185, Abcam Company, Cambridge, CB2 0AX, UK). Apoptosis and cell cycle analysis was performed at Faculty of medicine, Yamagata University, Yamagata, Japan, using BD FACS melody. Molecular docking was performed at the Nano Medical Engineering Laboratory, RIKEN Cluster for Pioneering Researchers, RIEKN, Japan, using ICM-Pro 3.8 software (MolSoft L.L.C., San Diego, CA, USA).
(§4) According to the standard water-soluble tetrazolium-8 (WST-8) assay, the current synthesized compounds have been tested for their anticancer activities against different five cancer cell lines; DLD-1, Hela, K562, SUIT-2, and HepG2 and daunorubicin was used as reference drug by the WST-8 assay. The five cells were maintained in a suspension culture, (Dulbecco’s modified eagle medium (DMEM) for SUIT-2, Hela, and HepG2 or PRIM for K562 and DLD), supplemented with 5% FBS (Fetal Bovine Serum) containing 1% of a penicillin-streptomycin (1:1) mixture. A 100 μL aliquot of cells (10,000 cells/mL) was added to a 96 well plate and incubated for 24 h at 37 °C in a humidified incubator containing 5% CO2 in the air. […] Then A 10 μL WST-8 solution (mixture of WST-8 and 1-methoxy PMS) was added to each well and the incubation continued for 3 h. The visible absorbance at 450 nm and 630 nm as the reference wavelength of each well was quantified using an MTP-310 absorbance microplate reader. Daunorubicin was used as a positive control. The results of cytotoxicity were recorded as growth inhibition percentages and as IC50 values.

[2] = tested on: human pancreatic cancer cell line SUIT-2; test: WST-8 antiproliferative assay, SUIT-2; assay type: cell-based
Protocol: as §1, §2, §3
(§5) According to the standard water-soluble tetrazolium-8 (WST-8) assay, the current synthesized compounds have been tested for their anticancer activities against different five cancer cell lines; DLD-1, Hela, K562, SUIT-2, and HepG2 and daunorubicin was used as reference drug by the WST-8 assay. The five cells were maintained in a suspension culture, (Dulbecco’s modified eagle medium (DMEM) for SUIT-2, Hela, and HepG2 or PRIM for K562 and DLD), supplemented with 5% FBS (Fetal Bovine Serum) containing 1% of a penicillin-streptomycin (1:1) mixture. A 100 μL aliquot of cells (10,000 cells/mL) was added to a 96 well plate and incubated for 24 h at 37 °C in a humidified incubator containing 5% CO2 in the air. After 24 h, a 10 μL aliquot of test compound (concentrations varying in the range of 10–150 µM) was added to each of the 96 wells and incubated for 24 h. Then A 10 μL WST-8 solution (mixture of WST-8 and 1-methoxy PMS) was added to each well and the incubation continued for 3 h. The visible absorbance at 450 nm and 630 nm as the reference wavelength of each well was quantified using an MTP-310 absorbance microplate reader. Daunorubicin was used as a positive control. The results of cytotoxicity were recorded as growth inhibition percentages and as IC50 values.

[3] = tested on: human hepatocellular carcinoma cell line HepG2; test: WST-8 antiproliferative assay, HepG2; assay type: cell-based
Protocol: as §1, §2, §3, §5

[4] = tested on: human myelogenous leukemia cell line K562; test: WST-8 antiproliferative assay, K562; assay type: cell-based; conditions: Homo sapiens
Protocol: as §1, §2, §3, §4

[5] = tested on: human hepatocellular carcinoma cell line HepG2; test: WST-8 antiproliferative assay, HepG2; assay type: cell-based; conditions: WST-8 assay, six concentrations 1-100 µM
[6] = tested on: human pancreatic cancer cell line SUIT-2; test: WST-8 antiproliferative assay, SUIT-2; assay type: cell-based; conditions: WST-8 assay, six concentrations 1-100 µM
[7] = tested on: human colorectal adenocarcinoma cell line DLD-1; test: WST-8 antiproliferative assay, DLD-1; assay type: cell-based; conditions: WST-8 assay, six concentrations 1-100 µM
JNK-2 = target: T1, JNK-2 (Homo sapiens, UniProt P45984); test: JNK-2 inhibitory assay (SimpleStep ELISA, pT183/Y185); assay type: biochemical; conditions: read-out: IC50 (µM) against JNK-2
T1 construct: HEK293 only for the control lysate
T1 sequence (P45984 whole entry): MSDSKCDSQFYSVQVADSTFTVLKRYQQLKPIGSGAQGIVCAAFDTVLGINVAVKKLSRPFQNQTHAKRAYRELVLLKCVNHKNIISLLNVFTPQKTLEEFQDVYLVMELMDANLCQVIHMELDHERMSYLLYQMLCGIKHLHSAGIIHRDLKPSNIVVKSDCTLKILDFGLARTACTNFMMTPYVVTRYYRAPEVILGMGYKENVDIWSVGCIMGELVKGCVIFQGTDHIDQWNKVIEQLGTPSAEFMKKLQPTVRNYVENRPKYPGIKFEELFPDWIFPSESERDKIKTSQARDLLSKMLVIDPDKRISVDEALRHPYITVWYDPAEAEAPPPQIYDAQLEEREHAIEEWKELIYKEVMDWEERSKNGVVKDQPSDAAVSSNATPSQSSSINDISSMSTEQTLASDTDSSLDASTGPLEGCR
Protocol: The SimpleStep ELISA employs an affinity tag-labelled capture antibody and a reporter attached detector antibody to immunocapture the sample analyte in solution. This complete complex (capture antibody/analyte/detector antibody) is then immobilized via immunoaffinity of an anti-tag antibody coating the well. To perform the assay, samples or controls are added to the wells, followed by the antibody cocktail. After incubation, the wells are washed to remove unbound material. TMB substrate is added and during incubation is catalyzed by HRP, generating blue coloration. This reaction is then stopped by the addition of stop solution, completing any color change from blue to yellow. The signal is generated proportionally to the amount of bound analyte and the intensity is measured at 450 nm. Optionally, instead of the endpoint reading, the development of TMB can be recorded kinetically at 600 nm. An antibody cocktail can be prepared by combining an appropriate volume of the capture and detector antibodies immediately prior to assay. To make 3 mL of the antibody cocktail, combine 1.5 mL of capture antibody with 1.5 mL of detector antibody. Mix thoroughly and gently. Control lysate can be prepared from HEK293 cells, cultured in 10% FBS containing medium, then treated with 1 μg/mL anisomycin. After preparing all the reagents, samples, and control as instructed and following the previously published procedures [74, 75], add 50 µL of sample or control to the well, add 50 µL of the antibody cocktail, then incubate at room temperature for 1 h on a plate shaker set to 400 rpm, aspirate and wash each well three times with 350 μL with wash buffer, add 100 μL TMB substrate to each well and incubate for 15 min, then add 100 μL stop solution and measure the absorbance at 450 nm.

[8] = SUIT-2, 100 µM, WST-8 assay, read-out: Growth Inhibition (GI%) SUIT-2
[9] = HepG2, 100 µM, WST-8 assay, read-out: Growth Inhibition (GI%) HepG2
[10] = K562, 100 µM, WST-8 assay, read-out: Growth Inhibition (GI%) K562
[11] = K562, WST-8 assay, six concentrations 1-100 µM, read-out: IC50 K562
[12] = WST-8 assay, six concentrations 1-100 µM

| IC50 [4, 11] | IC50 [1, 12] | IC50 [5] | IC50 [6] | IC50 [7] | IC50 (JNK-2) | SMILES | inhibition at 100 µM ([1]; 100 µM, WST-8 assay) | inhibition at 100 µM [2, 8] | inhibition at 100 µM [3, 9] | inhibition at 100 µM [4, 10] | inhibition at 100 µM [1] | IC50 [1] | inhibition at 100 µM ([2]; SUIT-2, read-out: Growth Inhibition (GI%) SUIT-2) | inhibition at 100 µM ([3]; HepG2, read-out: Growth Inhibition (GI%) HepG2) | IC50 ([3]; HepG2, read-out: IC50 HepG2) | inhibition at 100 µM ([4]; K562, read-out: Growth Inhibition (GI%) K562) | IC50 ([4]; K562, read-out: IC50 K562, WST-8 assay, six concentrations 1-100 µM) |
| --- | --- | --- | --- | --- | --- | --- | --- | --- | --- | --- | --- | --- | --- | --- | --- | --- | --- |
| 22 µM | – | – | – | – | – | COc1cc(/C(C)=N/O)ccc1OC(=O)c1cc(-c2ccccc2)n(-c2ccccc2)n1 [Compound 8a, (E)–4–(1–(Hydroxyimino)ethyl)2–methoxyphenyl 1,5–diphenyl–1H–pyrazole–3–carboxylate] | 33% | 77% | 0% | 94% | – | – | – | – | – | – | – |
| 13 µM | 32 µM | 35.7 µM | 27 µM | 10 µM | – | COc1cc(/C(C)=N/O)ccc1OC(=O)c1cc(-c2ccc(C)cc2)n(-c2ccccc2)n1 [Compound 8b, (E)–4–(1–(Hydroxyimino)ethyl)–2–methoxyphenyl 1–phenyl–5–p–tolyl–1H–pyrazole–3–carboxylate] | 60% | 102% | 107% | 99% | – | – | – | – | – | – | – |
| 20 µM | 22 µM | 4.7 µM | – | – | – | COc1ccc(-c2cc(C(=O)Oc3ccc(/C(C)=N/O)cc3OC)nn2-c2ccccc2)cc1OC [Compound 8e, (E)–4–(1–(Hydroxyimino)ethyl)–2–methoxyphenyl 5–(3,4–dimethoxy phenyl)–1–phenyl–1H–pyrazole–3–carboxylate] | 77% | 83% | 99% | 93% | – | – | – | – | – | – | – |
| 15.6 µM | 22 µM | 22.3 µM | – | – | – | COc1cc(/C(C)=N/O)ccc1OC(=O)c1cc(-c2ccccc2)n(-c2ccc(S(N)(=O)=O)cc2)n1 [Compound 8f, (E)–4–(1–(Hydroxyimino)ethyl)–2–methoxyphenyl 5–phenyl–1–(4–sulfamoyl phenyl)–1H–pyrazole–3–carboxylate] | 107% | 95% | 80% | 76% | – | – | – | – | – | – | – |
| 7.6 µM | 8 µM | 12.3 µM | 19 µM | 32.3 µM | > 200 µM | COc1cc(/C(C)=N/O)ccc1OC(=O)c1cc(-c2ccc(C)cc2)n(-c2ccc(S(N)(=O)=O)cc2)n1 [Compound 8g, (E)–4–(1–(Hydroxyimino)ethyl)–2–methoxyphenyl 1–(4–sulfamoylphenyl)–5–p–tolyl–1H–pyrazole–3–carboxylate] | 78% | 96% | 93% | 87% | – | – | – | – | – | – | – |
| 21 µM | 74 µM | – | 26 µM | – | – | COc1ccc(-c2cc(C(=O)Oc3ccc(/C(C)=N/O)cc3OC)nn2-c2ccc(S(N)(=O)=O)cc2)cc1 [Compound 8h, (E)–4–(1–(Hydroxyimino)ethyl)–2–methoxyphenyl 5–(4–methoxyphenyl)–1–(4–sulfamoyl phenyl)–1H–pyrazole–3–carboxylate] | 7% | 73% | 63% | 78% | – | – | – | – | – | – | – |
| 71 µM | 13 µM | – | 62 µM | – | 1 µM | COc1cc(/C(C)=N/O)ccc1OC(=O)c1cc(-c2ccc(Cl)cc2)n(-c2ccc(S(N)(=O)=O)cc2)n1 [Compound 8i, (E)–4–(1–(Hydroxyimino)ethyl)–2–methoxyphenyl 5–(4–chlorophenyl)–1–(4–sulfamoyl phenyl)–1H–pyrazole–3–carboxylate] | 100% | 98% | 90% | 97% | – | – | – | – | – | – | – |
| 16 µM | – | – | – | 26 µM | – | C/C(=N\O)c1ccc(NC(=O)c2cc(-c3ccccc3)n(-c3ccc(S(N)(=O)=O)cc3)n2)cc1 [Compound 10a, (E)–N–(4–(1–(Hydroxyimino)ethyl)phenyl)–5–phenyl–1–(4–sulfamoylphenyl)–1H–pyrazole–3–carboxamide] | 0% | 88% | 72% | 84% | – | – | – | – | – | – | – |
| – | – | – | – | 36 µM | – | COc1ccc(-c2cc(C(=O)Nc3ccc(/C(C)=N/O)cc3)nn2-c2ccc(S(N)(=O)=O)cc2)cc1 [Compound 10b, (E)–N–(4–(1–(Hydroxyimino)ethyl)phenyl)–5–(4–methoxyphenyl)–1–(4–sulfamoylphenyl)–1H–pyrazole–3–carboxamide] | 2% | 50% | 2% | 84% | – | – | – | – | – | – | – |
| 29 µM | 5 µM | – | 13 µM | – | – | COc1ccc(-c2cc(C(=O)Nc3ccc(/C(C)=N/O)cc3)nn2-c2ccc(S(N)(=O)=O)cc2)cc1OC [Compound 10c, (E)–5–(3,4–Dimethoxyphenyl)–N–(4–(1–(hydroxyimino)ethyl)phenyl)–1–(4–sulfamoyl phenyl)–1H–pyrazole–3–carboxamide] | 75% | 103% | 52% | 87% | – | – | – | – | – | – | – |

| SMILES | IC50 [4, 11] | IC50 [1, 12] | IC50 [5] | IC50 [6] | IC50 [7] | IC50 (JNK-2) | inhibition at 100 µM ([1]; 100 µM, WST-8 assay) | inhibition at 100 µM [2, 8] | inhibition at 100 µM [3, 9] | inhibition at 100 µM [4, 10] | inhibition at 100 µM [1] | IC50 [1] | inhibition at 100 µM ([2]; SUIT-2, read-out: Growth Inhibition (GI%) SUIT-2) | inhibition at 100 µM ([3]; HepG2, read-out: Growth Inhibition (GI%) HepG2) | IC50 ([3]; HepG2, read-out: IC50 HepG2) | inhibition at 100 µM ([4]; K562, read-out: Growth Inhibition (GI%) K562) | IC50 ([4]; K562, read-out: IC50 K562, WST-8 assay, six concentrations 1-100 µM) |
| --- | --- | --- | --- | --- | --- | --- | --- | --- | --- | --- | --- | --- | --- | --- | --- | --- | --- |
| COc1cc(/C(C)=N/O)ccc1OC(=O)c1cc(-c2ccc(Cl)cc2)n(-c2ccccc2)n1 [Compound 8d, (E)–4–(1–(Hydroxyimino)ethyl)–2–methoxyphenyl 5–(4–chlorophenyl)–1–phenyl–1H–pyrazole–3–carboxylate] | – | – | – | – | – | 49 µM | – | – | – | – | 48% | 57 µM | 77% | 98% | 23.3 µM | 95% | 9 µM |
